Measured values published in ChEMBL document CHEMBL3301361, “Experimental in vitro DMPK and physicochemical data on a set of publicly disclosed compounds”.

What was measured:
physchem = conditions: octan-1-ol/water
in vitro [1] = conditions: human, plasma
in vitro [2] = conditions: human
in vitro [3] = conditions: hepatocytes

Structure (SMILES)	logD (physchem; pH 7.4, LogD7.4)	fraction unbound at 5 h (in vitro [1]; PPB)	microsomal CLint (in vitro [2]; liver microsomes)	hepatocyte CLint (in vitro [3])	microsomal CLint (in vitro [2]; microsomes)	fraction unbound at 5 h (in vitro [1])	logD (physchem; pH 7.4)
C=CC(=O)Nc1cccc(CN2C(=O)N(c3c(Cl)c(OC)cc(OC)c3Cl)Cc3cnc(NCCCCN(CC)CC)nc32)c1	2.04	0.02	87.1 µL/min/mg	39.8 µL/min/1e6 cells	–	–	–
CCN(CC)CCNc1ncnc2c1sc1nc(N3CCOCC3)c3c(c12)CCCC3	3.3	0.0784	9.55 µL/min/mg	26.3 µL/min/1e6 cells	–	–	–
CC(C)C(=O)Nc1nc(-c2ccccn2)cc2ccccc12	2.7	0.0245	105 µL/min/mg	61.7 µL/min/1e6 cells	–	–	–
Nc1ncnc2c1ncn2[C@@H]1O[C@H](CSCCCNC(=O)Nc2ccc(Cl)cc2)[C@@H](O)[C@H]1O	2.5	0.0836	21.4 µL/min/mg	93.3 µL/min/1e6 cells	–	–	–
Clc1cccc(-c2cnc3ccc(NC4CCOCC4)nn23)c1	4.3	0.009	9.12 µL/min/mg	14.8 µL/min/1e6 cells	–	–	–
CC(C)c1ccc(NC(=O)NCCCSC[C@H]2O[C@@H](n3cnc4c(N)ncnc43)[C@H](O)[C@@H]2O)cc1	2.5	0.0784	126 µL/min/mg	110 µL/min/1e6 cells	–	–	–
COC(=O)[C@H](c1ccccc1Cl)N1CCc2sccc2C1 [CLOPIDOGREL]	3.69	0.0136	–	137 µL/min/1e6 cells	> 150 µL/min/mg	–	–
Cc1[nH]c2ccc(-c3nnc(SCC(=O)N4CCCc5ccccc54)o3)cc2c1C	–	–	> 150 µL/min/mg	> 150 µL/min/1e6 cells	–	0.0052	–
CNc1nc(C)c(-c2nc(Nc3cccc(N4CCNCC4)c3)ncc2C#N)s1	1.9	0.139	–	12.3 µL/min/1e6 cells	17.8 µL/min/mg	–	–
O=C(O)c1cncc(-c2ccc(Cl)c(C(=O)NCC34CC5CC(CC(C5)C3)C4)c2)c1	0.85	0.0099	–	7 µL/min/1e6 cells	66 µL/min/mg	–	–
COc1cnc(-c2ccccn2)nc1N(C)c1ccccc1	2.79	0.04	104 µL/min/mg	> 150 µL/min/1e6 cells	–	–	–
O=C(CSc1nc2c(c(=O)n1-c1ccccc1)SCC2)Nc1ncc(-c2ccccc2)s1	–	0.0023	> 150 µL/min/mg	129 µL/min/1e6 cells	–	–	–
CCNC(=O)C[C@H]1N=C(c2ccc(Cl)cc2)c2cc(OC)ccc2-n2c(C)nnc21	–	–	–	6.31 µL/min/1e6 cells	11.5 µL/min/mg	0.069	–
O=C1Nc2ccccc2B(O)N1c1ccccc1	–	–	–	7.94 µL/min/1e6 cells	5.13 µL/min/mg	0.179	1.4
COc1cc(C(=O)OCCCCNC(=N)N)cc(OC)c1O [LEONURINE]	–	0.619	< 3 µL/min/mg	138 µL/min/1e6 cells	–	–	–
COc1ccc(N(C(=O)Oc2c(C)cccc2C)c2ccnc(Nc3ccc(N4CCN(C)CC4)cc3)n2)c(OC)c1	–	–	–	35.5 µL/min/1e6 cells	27.5 µL/min/mg	0.0017	–
C[C@@H](C(=O)NCCN1CCCC1)c1ccc(OS(=O)(=O)C(F)(F)F)cc1	1.64	0.324	< 3 µL/min/mg	6 µL/min/1e6 cells	–	–	–
O=C(Nc1ccncc1)c1cccc2ccccc12	–	–	60.3 µL/min/mg	25.1 µL/min/1e6 cells	–	0.069	3.1
Cc1cc(C)nc(SCC(N)=O)n1	0.23	0.788	< 3 µL/min/mg	< 3 µL/min/1e6 cells	–	–	–
CC(=O)c1cc2ccc(O)cc2oc1=O	0.87	0.0149	–	> 150 µL/min/1e6 cells	28.2 µL/min/mg	–	–
CN[C@@H](C)C(=O)N[C@H](C(=O)N1CC[C@H]2CCN(CCc3ccccc3)C[C@H]21)C1CCCCC1	2.47	0.0568	21.4 µL/min/mg	10.5 µL/min/1e6 cells	–	–	–

Structure (SMILES)	logD (physchem; pH 7.4, LogD7.4)	fraction unbound at 5 h (in vitro [1]; PPB)	microsomal CLint (in vitro [2]; liver microsomes)	hepatocyte CLint (in vitro [3])	microsomal CLint (in vitro [2]; microsomes)	fraction unbound at 5 h (in vitro [1])	logD (physchem; pH 7.4)
CCCNC(=O)CSc1ccc(S(=O)(=O)N2CCCC2)cn1	1.55	0.349	–	55 µL/min/1e6 cells	12.6 µL/min/mg	–	–
CCc1nc2ccc(C(=O)NCc3ccc4c(c3)OCO4)cn2c1N(C)Cc1cccs1	–	0.0035	> 150 µL/min/mg	> 150 µL/min/1e6 cells	–	–	–
CCOC(=O)c1cnc2c(N)cccc2c1O	0.9	0.201	20.4 µL/min/mg	> 150 µL/min/1e6 cells	–	–	–
Nc1nc2ccc(-c3ccncc3)cc2s1	–	0.119	20.4 µL/min/mg	29.5 µL/min/1e6 cells	–	–	–
O=C(CSc1ccccc1)N1CCN(C(=O)c2ccco2)CC1	1.6	0.266	12.3 µL/min/mg	64.6 µL/min/1e6 cells	–	–	–
CCOc1ccc(NC(C)=O)cc1 [PHENACETIN]	1.5	0.651	24.6 µL/min/mg	26.9 µL/min/1e6 cells	–	–	–
COc1ccccc1C(=O)Nc1ccc(Cc2ccncc2)cc1	–	0.0024	–	103 µL/min/1e6 cells	7 µL/min/mg	–	–
C[C@@H](C(N)=O)c1ccc(OS(=O)(=O)C(F)(F)F)cc1	–	0.134	< 3 µL/min/mg	3 µL/min/1e6 cells	–	–	–
O=C(C1CCN(c2nnc(-n3cccc3)s2)CC1)N1CCN(Cc2ccc3c(c2)OCO3)CC1	2.5	0.0447	> 150 µL/min/mg	50.1 µL/min/1e6 cells	–	–	–
CS(=O)(=O)c1ccc(-c2cnc(N)c(-c3ccc(C(F)(F)F)nc3)c2)cc1 [MMV-048]	2.4	0.194	6.17 µL/min/mg	4.79 µL/min/1e6 cells	–	–	–
O=C(Nc1nc2ccccc2n1CCCO)c1cccc([N+](=O)[O-])c1	3	0.0801	–	85.1 µL/min/1e6 cells	112 µL/min/mg	–	–
Nc1ncnc2c1c(COc1cccc(Cl)c1)nn2C1CCOCC1	3.17	0.0477	–	> 150 µL/min/1e6 cells	46.8 µL/min/mg	–	–
O=C(Nc1cc(-c2ccncc2)c[nH]c1=O)[C@H](Cc1ccccc1)NC1(c2ccccn2)CC1	3.44	0.0287	19.1 µL/min/mg	> 150 µL/min/1e6 cells	–	–	–
CC1(C)S[C@@H]2[C@H](NC(=O)C(C(=O)O)c3ccccc3)C(=O)N2[C@H]1C(=O)O (stereo partly drawn) [CARBENICILLIN]	–	0.546	6.92 µL/min/mg	3.39 µL/min/1e6 cells	–	–	–
COc1ccc(-c2nc3c(NCCCN(C)C(=O)C4CCC4)c(Br)cnc3[nH]2)cc1	–	0.0022	> 150 µL/min/mg	138 µL/min/1e6 cells	–	–	–
CN(C)c1nc(NC[C@H]2CC[C@H](CNS(=O)(=O)c3ccc(Br)cc3OC(F)(F)F)CC2)nc2ccccc12	–	0.0005	–	50.1 µL/min/1e6 cells	117 µL/min/mg	–	–
O=C(CSc1nc2c(c(=O)n1-c1ccccc1)SCC2)Nc1ccc(-c2ccccc2)cn1	–	0.0017	–	> 150 µL/min/1e6 cells	> 150 µL/min/mg	–	–
CSCCC(NC(=O)c1cnccn1)c1nc2ccccc2[nH]1 (stereo not drawn)	–	0.398	31 µL/min/mg	74 µL/min/1e6 cells	–	–	–
CCOc1nc2ccc(OCCC3CCN(c4ccc(C)nn4)CC3)cc2o1	–	0.0028	6 µL/min/mg	4 µL/min/1e6 cells	–	–	–
O=C(O)Cc1ccc(N2CCC(CN3CCC(Oc4ccc(Cl)c(Cl)c4)CC3)CC2)cc1	–	0.02	–	9 µL/min/1e6 cells	< 3 µL/min/mg	–	–
